Results on three compounds are retold here after US4864023A, “Pyrido(3,2,1-IJ)-1,3,4-benzoxadiazine derivatives” (priority 1988, dated 1989).

Data set [1] relates to Bacillus subtilis PCI 219. Briefly: in vitro antibacterial activity, standard agar dilution method. As to conditions: PCI219, aerobic, read-out: minimum inhibitory concentration (MIC). Type of data set: cell-based. (In agar dilution, organisms are placed on agar that contains the substance at set levels.)
The subject of data set [2] is Staphylococcus aureus FDA 209P JC-1. The data set is described as above. As to conditions: FDA209P; Staphylococcus aureus FDA 209P JC-1; aerobic; agar dilution; read-out: minimum inhibitory concentration (MIC). The format is cell-based.
Data set [3] relates to Staphylococcus aureus NR 2855. The data set is described as above. As to conditions: NR2855; Staphylococcus aureus NR 2855; aerobic; agar dilution; read-out: minimum inhibitory concentration (MIC). Type of data set: cell-based.
For data set [4], the system named is Staphylococcus aureus Smith. The description is as above. The format is cell-based. As to conditions: Staphylococcus aureus Smith; aerobic; agar dilution; read-out: minimum inhibitory concentration (MIC).
For data set [5], the system named is Staphylococcus epidermidis IFO 12993. Described as above. The format is cell-based. To be noted: IFO12993, aerobic, read-out: minimum inhibitory concentration (MIC).
Data set [6] has as its system Staphylococcus epidermidis NR 2942. Described as above. Type of data set: cell-based. As to conditions: NR2942, aerobic, read-out: minimum inhibitory concentration (MIC).
Data set [7] concerns Enterococcus faecalis NR 2943. The data set is described as above. As to conditions: NR2943, aerobic, read-out: minimum inhibitory concentration (MIC). The format is cell-based.
Data set [8] concerns Alcaligenes faecalis IFO 13111. Described as above. Type of data set: cell-based. To be noted: IFO13111, aerobic, read-out: minimum inhibitory concentration (MIC).
In data set [9] the test system is Citrobacter freundii IFO 12681. Described as above. Type of data set: cell-based. To be noted: IFO12681, aerobic, read-out: minimum inhibitory concentration (MIC).
Data set [10] deals with Enterobacter aerogenes NR 2945. The description is as above. The format is cell-based. To be noted: Klebsiella aerogenes, NR2945, aerobic, read-out: minimum inhibitory concentration (MIC).
For data set [11], the system named is Enterobacter cloacae NR 2946. The data set is described as above. Type of data set: cell-based. To be noted: NR2946, aerobic, read-out: minimum inhibitory concentration (MIC).
The test system of data set [12] is Escherichia coli NIHJ JC-2. The description is as above. Type of data set: cell-based. As to conditions: NIHJJC2, aerobic, read-out: minimum inhibitory concentration (MIC).
In data set [13] the test system is Escherichia coli NR 2630. The description is as above. Type of data set: cell-based. To be noted: NR2630; Escherichia coli NR 2630; aerobic; agar dilution; read-out: minimum inhibitory concentration (MIC).
Data set [14] relates to Klebsiella pneumoniae FDA PCI 602. The data set is described as above. The format is cell-based. As to conditions: FDAPCI602, aerobic, read-out: minimum inhibitory concentration (MIC).
Data set [15] has as its system Bordetella bronchiseptica ATCC 4617. Described as above. The format is cell-based. To be noted: ATCC4617, aerobic, read-out: minimum inhibitory concentration (MIC).
In data set [16] the test system is Proteus rettgeri ATCC 14505. The data set is described as above. To be noted: Providencia rettgeri, ATCC14505, aerobic, read-out: minimum inhibitory concentration (MIC). The format is cell-based.
Data set [17] has as its system Proteus vulgaris OX19 ATCC 6898. The data set is described as above. Type of data set: cell-based. To be noted: ATCC6898, aerobic, read-out: minimum inhibitory concentration (MIC).
Data set [18] has as its system Pseudomonas aeruginosa A3. Described as above. The format is cell-based. As to conditions: aerobic, read-out: minimum inhibitory concentration (MIC).
Data set [19] has as its system Pseudomonas aeruginosa NR 2950. The description is as above. The format is cell-based. As to conditions: NR2950, aerobic, read-out: minimum inhibitory concentration (MIC).
Data set [20] relates to Pseudomonas stutzeri IFO 12695. Described as above. The format is cell-based. As to conditions: Stutzerimonas stutzeri, IFO12695, aerobic, read-out: minimum inhibitory concentration (MIC).
In data set [21] the test system is Serratia marcescens IFO 12648. The description is as above. Type of data set: cell-based. As to conditions: IFO12648, aerobic, read-out: minimum inhibitory concentration (MIC).
In data set [22] the test system is Salmonella typhimurium IFO 12529. The description is as above. Type of data set: cell-based. As to conditions: Salmonella enterica, aerobic, read-out: minimum inhibitory concentration (MIC).
Data set [23] in a line: acute toxicity by oral administration. As to conditions: mouse, in vivo; oral administration, ICR mice; read-out: LD50. From the text: The acute toxicity of these compounds was examined by oral administration in ICR mice.

In brackets after ≈: the same amount, converted by molar mass. A value given as a limit tells only on which side of the number the result lay.

For `CC1Oc2c(N3CCN(C)CC3)c(F)cc3c(=O)c(C(=O)O)cn(c23)N1C` (stereo not drawn) [Example 26], the MIC in data set [1] is 0.78 µg/mL (≈ 2.07 µM); in data set [2] it was 3.13 µg/mL (≈ 8.32 µM); in [3] it was 1.56 µg/mL (≈ 4.14 µM); in [4], 3.13 µg/mL (≈ 8.32 µM); in data set [5], 3.13 µg/mL (≈ 8.32 µM); in data set [6], 3.13 µg/mL (≈ 8.32 µM). Further, the MIC in data set [7] was determined as 25 µg/mL (≈ 66.4 µM); in [8], 12.5 µg/mL (≈ 33.2 µM); in [9], 0.78 µg/mL (≈ 2.07 µM); in [10] it was 0.2 µg/mL (≈ 0.531 µM); in data set [11] it was 0.78 µg/mL (≈ 2.07 µM); in data set [12], 0.78 µg/mL (≈ 2.07 µM). The MIC came out at 0.2 µg/mL (≈ 0.531 µM) in data set [13]; 3.13 µg/mL (≈ 8.32 µM) in data set [14]; 12.5 µg/mL (≈ 33.2 µM) in [15]; 6.25 µg/mL (≈ 16.6 µM) in [16]; 0.39 µg/mL (≈ 1.04 µM) in [17]; 6.25 µg/mL (≈ 16.6 µM) in [18]. In addition, the MIC in data set [19] stood at 50 µg/mL (≈ 133 µM); in data set [20], 0.78 µg/mL (≈ 2.07 µM); in [21], 1.56 µg/mL (≈ 4.14 µM); in data set [22] it was 0.78 µg/mL (≈ 2.07 µM).

In the case of `CN1CCN(c2c(F)cc3c(=O)c(C(=O)O)cn4c3c2OCN4CCF)CC1` [Example 69, 9-fluoro-3-(2-fluoroethyl)-10-(4-methyl-1-piperazinyl)-7-oxo-2,3-dihydro-7H-pyrido[3,2,1-ij]-1,3,4-benzoxadiazine-6-carboxylic acid], the MIC in data set [1] was found to be 0.2 µg/mL (≈ 0.507 µM); in data set [2], 1.56 µg/mL (≈ 3.96 µM); in [3] it was 1.56 µg/mL (≈ 3.96 µM); in [4], 0.78 µg/mL (≈ 1.98 µM); in data set [5], 1.56 µg/mL (≈ 3.96 µM); in data set [6] it was 1.56 µg/mL (≈ 3.96 µM). The MIC turned out to be 12.5 µg/mL (≈ 31.7 µM) in [7]; 3.13 µg/mL (≈ 7.94 µM) in data set [8]; 0.1 µg/mL (≈ 0.254 µM) in data set [9]; 0.1 µg/mL (≈ 0.254 µM) in [10]; 0.2 µg/mL (≈ 0.507 µM) in data set [11]; 0.2 µg/mL (≈ 0.507 µM) in [12]. In addition, the MIC amounted to 0.1 µg/mL (≈ 0.254 µM) in data set [13]; 0.39 µg/mL (≈ 0.989 µM) in [14]; 0.78 µg/mL (≈ 1.98 µM) in [15]; 0.78 µg/mL (≈ 1.98 µM) in data set [16]; 0.05 µg/mL (≈ 0.127 µM) in data set [17]; 0.78 µg/mL (≈ 1.98 µM) in data set [18]. For the same compound, the MIC in data set [19] was 6.25 µg/mL (≈ 15.8 µM); in data set [20], 0.2 µg/mL (≈ 0.507 µM); in [21], 0.2 µg/mL (≈ 0.507 µM); in data set [22], 0.1 µg/mL (≈ 0.254 µM).

The term LD50 denotes the dose expected to kill half of the subjects tested. With `CN1COc2c(N3CCCNCC3)c(F)cc3c(=O)c(C(=O)O)cn1c23` [Example 16], the MIC in [1] turned out to be 0.2 µg/mL (≈ 0.552 µM); in [2], 0.39 µg/mL (≈ 1.08 µM); in data set [3], 6.25 µg/mL (≈ 17.2 µM); in data set [4], 0.39 µg/mL (≈ 1.08 µM); in data set [5], 1.56 µg/mL (≈ 4.31 µM); in data set [6], 1.56 µg/mL (≈ 4.31 µM). The MIC in data set [7] was determined as 25 µg/mL (≈ 69 µM); in data set [8] it was 50 µg/mL (≈ 138 µM); in [9] it was 0.1 µg/mL (≈ 0.276 µM); in data set [10], 0.05 µg/mL (≈ 0.138 µM); in [11] it was 0.1 µg/mL (≈ 0.276 µM); in [12], 0.2 µg/mL (≈ 0.552 µM). Moreover, the MIC in [14] came out at 1.56 µg/mL (≈ 4.31 µM); in data set [15], 25 µg/mL (≈ 69 µM); in [16] it was 1.56 µg/mL (≈ 4.31 µM); in data set [17], 0.1 µg/mL (≈ 0.276 µM); in data set [18], 0.39 µg/mL (≈ 1.08 µM); in data set [19], 6.25 µg/mL (≈ 17.2 µM). Further, the MIC was found to be 0.05 µg/mL (≈ 0.138 µM) in data set [20], 0.39 µg/mL (≈ 1.08 µM) in data set [21] and 0.1 µg/mL (≈ 0.276 µM) in [22]. In data set [23], the median lethal dose (LD50) is over 2000 mg/kg.
